Measured values reported in PMC2765968, “A novel inhibitor of Chlamydophila pneumoniae protein kinase D (PknD) inhibits phosphorylation of CdsD and suppresses bacterial replication” (BMC Microbiology, 2009).

Target: T1, CdsN (GST-CdsN) (Chlamydia pneumoniae, UniProt A0ABN3YQA5)
T1 construct: gene yopN; GST tag kept, eluted from glutathione-agarose
T1 sequence (A0ABN3YQA5 1-442): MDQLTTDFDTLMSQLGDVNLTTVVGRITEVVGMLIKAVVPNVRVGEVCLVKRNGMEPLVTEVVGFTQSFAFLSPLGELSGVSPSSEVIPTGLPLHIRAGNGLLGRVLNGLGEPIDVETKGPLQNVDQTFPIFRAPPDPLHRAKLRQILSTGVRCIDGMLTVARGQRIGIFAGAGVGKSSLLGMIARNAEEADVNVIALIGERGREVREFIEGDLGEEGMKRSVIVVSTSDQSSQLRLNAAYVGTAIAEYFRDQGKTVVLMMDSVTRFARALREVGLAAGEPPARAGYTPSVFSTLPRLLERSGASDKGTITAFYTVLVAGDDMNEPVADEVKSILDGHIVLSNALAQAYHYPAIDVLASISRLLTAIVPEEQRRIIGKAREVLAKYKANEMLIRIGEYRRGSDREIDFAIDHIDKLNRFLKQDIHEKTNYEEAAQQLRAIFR
Assay: ATP hydrolysis, malachite green phosphate assay
Format: biochemical
Conditions: […] ATP, […] Tris-HCl pH […] MgCl2, […] KCl, […] °C, […] min

With Nc1ncnc2c1ncn2[C@@H]1O[C@H](COP(=O)(O)OP(=O)(O)OP(=O)(O)O)[C@@H](O)[C@H]1O [ATP] the “ATP hydrolysis, malachite green phosphate assay” value was “ATP hydrolysis by GST-CdsN purified from glutathione-agarose beads was measured using a malachite green assay”.
